Assay results as given in ChEMBL document CHEMBL5291721, “A preclinical secondary pharmacology resource illuminates target-adverse drug reaction associations of marketed drugs” (Nat Commun, 2023).

Experiments:
[1] = target: Type-2 angiotensin II receptor (Homo sapiens, UniProt P50052); assay type: functional
[2] = target: T1, Retinoic acid receptor beta (Homo sapiens, UniProt P10826); assay type: functional, cell-based
T1 sequence (P10826 whole entry): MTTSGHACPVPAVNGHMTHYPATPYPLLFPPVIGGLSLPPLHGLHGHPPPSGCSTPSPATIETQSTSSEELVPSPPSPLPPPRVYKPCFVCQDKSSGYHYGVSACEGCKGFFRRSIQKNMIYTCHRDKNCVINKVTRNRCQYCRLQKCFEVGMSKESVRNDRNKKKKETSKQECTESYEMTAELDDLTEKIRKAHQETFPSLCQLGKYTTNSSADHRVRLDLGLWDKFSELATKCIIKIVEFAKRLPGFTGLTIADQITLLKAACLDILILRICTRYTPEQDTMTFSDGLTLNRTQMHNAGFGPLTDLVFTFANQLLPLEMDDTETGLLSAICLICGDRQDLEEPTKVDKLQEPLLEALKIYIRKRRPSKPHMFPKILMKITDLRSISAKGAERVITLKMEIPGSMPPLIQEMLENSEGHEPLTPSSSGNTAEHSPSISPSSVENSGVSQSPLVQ

[3] = target: T2, Bile acid receptor (Homo sapiens, UniProt Q96RI1); assay type: functional
T2 sequence (Q96RI1 whole entry): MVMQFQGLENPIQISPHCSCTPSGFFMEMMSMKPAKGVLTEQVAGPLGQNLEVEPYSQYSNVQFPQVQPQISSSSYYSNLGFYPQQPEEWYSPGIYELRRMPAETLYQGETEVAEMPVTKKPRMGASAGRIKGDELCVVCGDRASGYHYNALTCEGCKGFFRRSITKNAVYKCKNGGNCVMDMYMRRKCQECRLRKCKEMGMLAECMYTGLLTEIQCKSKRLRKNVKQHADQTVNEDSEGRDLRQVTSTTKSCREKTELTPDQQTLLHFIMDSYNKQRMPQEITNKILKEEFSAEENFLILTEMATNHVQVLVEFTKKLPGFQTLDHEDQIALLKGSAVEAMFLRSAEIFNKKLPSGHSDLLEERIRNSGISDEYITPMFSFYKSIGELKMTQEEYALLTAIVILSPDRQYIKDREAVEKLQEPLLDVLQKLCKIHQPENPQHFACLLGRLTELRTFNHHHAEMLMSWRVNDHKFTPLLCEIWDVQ

[4] = target: T2, Bile acid receptor; assay type: functional; remark: listed apart in the source
[5] = target: T3, Retinoic acid receptor gamma (Homo sapiens, UniProt P13631); assay type: functional, cell-based
T3 sequence (P13631 whole entry): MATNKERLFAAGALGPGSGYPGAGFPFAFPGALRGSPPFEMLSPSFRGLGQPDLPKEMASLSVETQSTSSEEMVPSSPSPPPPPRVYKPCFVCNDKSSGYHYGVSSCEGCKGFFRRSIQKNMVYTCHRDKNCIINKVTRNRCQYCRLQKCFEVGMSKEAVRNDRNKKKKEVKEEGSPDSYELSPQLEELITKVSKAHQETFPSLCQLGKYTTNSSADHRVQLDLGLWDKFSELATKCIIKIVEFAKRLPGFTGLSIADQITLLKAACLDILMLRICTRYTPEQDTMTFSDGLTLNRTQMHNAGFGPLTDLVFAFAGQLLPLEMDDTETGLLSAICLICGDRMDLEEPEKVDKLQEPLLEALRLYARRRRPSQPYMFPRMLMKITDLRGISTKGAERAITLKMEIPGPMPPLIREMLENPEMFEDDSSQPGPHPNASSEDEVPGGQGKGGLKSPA

[6] = target: T4, Oxysterols receptor LXR-alpha (Homo sapiens, UniProt Q13133); assay type: functional
T4 sequence (Q13133 whole entry): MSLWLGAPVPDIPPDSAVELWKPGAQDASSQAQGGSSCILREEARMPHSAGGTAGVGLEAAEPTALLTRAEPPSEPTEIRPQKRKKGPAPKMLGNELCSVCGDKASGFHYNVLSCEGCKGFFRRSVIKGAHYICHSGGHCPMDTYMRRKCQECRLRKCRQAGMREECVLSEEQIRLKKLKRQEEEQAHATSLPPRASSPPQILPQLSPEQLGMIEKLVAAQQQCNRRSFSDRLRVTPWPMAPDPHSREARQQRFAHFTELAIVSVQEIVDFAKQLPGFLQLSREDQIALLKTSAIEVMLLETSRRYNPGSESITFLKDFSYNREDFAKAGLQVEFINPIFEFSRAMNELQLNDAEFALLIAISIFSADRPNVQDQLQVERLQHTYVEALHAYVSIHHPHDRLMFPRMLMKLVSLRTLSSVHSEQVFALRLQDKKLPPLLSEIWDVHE

[7] = target: T1, Retinoic acid receptor beta; assay type: functional, cell-based; remark: listed apart in the source
[8] = target: T5, Retinoic acid receptor alpha (Homo sapiens, UniProt P10276); assay type: functional, cell-based
T5 sequence (P10276 whole entry): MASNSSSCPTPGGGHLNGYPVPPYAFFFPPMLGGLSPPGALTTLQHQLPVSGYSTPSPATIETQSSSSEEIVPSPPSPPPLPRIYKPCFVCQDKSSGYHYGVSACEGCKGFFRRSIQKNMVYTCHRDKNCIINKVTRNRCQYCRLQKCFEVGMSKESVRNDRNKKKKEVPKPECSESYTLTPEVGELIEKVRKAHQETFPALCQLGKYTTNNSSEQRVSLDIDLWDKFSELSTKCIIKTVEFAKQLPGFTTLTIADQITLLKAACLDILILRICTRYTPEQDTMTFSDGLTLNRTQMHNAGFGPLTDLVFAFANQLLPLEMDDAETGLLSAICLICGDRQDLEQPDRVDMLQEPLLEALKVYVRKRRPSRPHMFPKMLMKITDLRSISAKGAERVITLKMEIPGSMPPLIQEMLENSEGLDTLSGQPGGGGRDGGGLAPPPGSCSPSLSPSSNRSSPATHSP

[9] = target: T4, Oxysterols receptor LXR-alpha; assay type: functional; remark: listed apart in the source
[10] = target: T3, Retinoic acid receptor gamma; assay type: functional, cell-based; remark: listed apart in the source
[11] = target: T2, Bile acid receptor; assay type: functional; remark: listed apart in the source
[12] = target: T2, Bile acid receptor; assay type: functional; remark: listed apart in the source
Further: assay procedure not described here.

Chain of Type-2 angiotensin II receptor (P50052 whole entry): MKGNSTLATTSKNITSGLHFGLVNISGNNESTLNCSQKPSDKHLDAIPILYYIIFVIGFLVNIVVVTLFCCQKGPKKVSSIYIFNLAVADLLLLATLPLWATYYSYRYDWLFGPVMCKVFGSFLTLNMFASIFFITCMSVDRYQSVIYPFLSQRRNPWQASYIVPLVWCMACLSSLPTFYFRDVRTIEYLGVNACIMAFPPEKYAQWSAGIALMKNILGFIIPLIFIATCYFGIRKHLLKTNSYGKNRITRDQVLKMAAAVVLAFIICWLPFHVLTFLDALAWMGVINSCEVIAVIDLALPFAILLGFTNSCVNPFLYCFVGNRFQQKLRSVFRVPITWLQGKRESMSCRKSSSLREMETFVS

Row | AC50 [1] [µM] | AC50 [2] [µM] | AC50 [3] [µM] | AC50 [4] [µM] | AC50 [5] [µM] | AC50 [6] [µM] | AC50 [7] [µM] | AC50 [8] [µM] | AC50 [9] [µM] | AC50 [10] [µM] | AC50 [11] [µM] | AC50 [12] [µM] | Structure (SMILES)
1 | > 100 | – | – | – | – | – | – | – | – | – | – | – | CC(C)NCC(O)COc1ccc(COCCOC(C)C)cc1 (configuration not stated) [BISOPROLOL]
2 | – | 24 | > 10 | > 10 | > 30 | 6.3 | > 30 | 22 | > 30 | 2.6 | > 30 | > 30 | COc1ccc2c(c1)C(=O)N(CCc1ccc(S(=O)(=O)NC(=O)NC3CCCCC3)cc1)C(=O)C2(C)C [GLIQUIDONE]
